Reference: PubChem BioAssay (NCI)
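48-hour exposure; five concentrations; linearly interpolated endpoints. TGI marks complete inhibition of growth.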

Legend:
Assay in all cases: inhibition of tumour cell growth, NCI panel, 48 h
HOP-62 NSCLC = system: HOP-62 NSCLC
SK-MEL-28 melanoma = system: SK-MEL-28 melanoma
CCRF-CEM leukemia = system: CCRF-CEM leukemia
HT29 colon = system: HT29 colon
HCT-15 colon = system: HCT-15 colon
LOX IMVI melanoma = system: LOX IMVI melanoma
UO-31 renal = system: UO-31 renal
HCC-2998 colon = system: HCC-2998 colon
RXF 393 renal = system: RXF 393 renal
MCF7 breast = system: MCF7 breast
UACC-62 melanoma = system: UACC-62 melanoma
MALME-3M melanoma = system: MALME-3M melanoma
K-562 leukemia = system: K-562 leukemia
U251 CNS = system: U251 CNS
NCI-H460 lung = system: NCI-H460 lung
OVCAR-5 ovarian = system: OVCAR-5 ovarian
SN12C renal = system: SN12C renal
OVCAR-4 ovarian = system: OVCAR-4 ovarian
SK-MEL-5 melanoma = system: SK-MEL-5 melanoma
SW-620 colon = system: SW-620 colon

Structure (SMILES) | TGI (HOP-62 NSCLC) | TGI (SK-MEL-28 melanoma) | TGI (CCRF-CEM leukemia) | TGI (HT29 colon) | TGI (HCT-15 colon) | TGI (LOX IMVI melanoma) | TGI (UO-31 renal) | TGI (HCC-2998 colon) | TGI (RXF 393 renal) | TGI (MCF7 breast) | TGI (UACC-62 melanoma) | TGI (MALME-3M melanoma) | TGI (K-562 leukemia) | TGI (U251 CNS) | TGI (NCI-H460 lung) | TGI (OVCAR-5 ovarian) | TGI (SN12C renal) | TGI (OVCAR-4 ovarian) | TGI (SK-MEL-5 melanoma) | TGI (SW-620 colon)
CCCOP(=O)(OCCC)OC(C(F)(F)F)C(F)(F)F | > 100 µM | > 100 µM | > 100 µM | > 100 µM | > 100 µM | > 100 µM | > 100 µM | > 100 µM | > 100 µM | > 100 µM | > 100 µM | > 100 µM | > 100 µM | > 100 µM | > 100 µM | > 100 µM | > 100 µM | – | – | –
CN1Cc2cc(O)c(O)cc2C(O)C1 (centres undefined) | > 100 µM | > 100 µM | > 100 µM | > 100 µM | – | > 100 µM | > 100 µM | > 100 µM | > 100 µM | > 100 µM | > 100 µM | > 100 µM | > 100 µM | > 100 µM | > 100 µM | > 100 µM | > 100 µM | > 100 µM | > 100 µM | > 100 µM
CCOc1ccc(C(C)c2cc3c(cc2OC)OCO3)cc1 (centres undefined) | 23.1 µM | – | – | 12.4 µM | > 100 µM | > 100 µM | > 100 µM | 12.1 µM | 0.539 µM | – | > 100 µM | 89.7 µM | – | > 100 µM | > 100 µM | > 100 µM | 40.7 µM | > 100 µM | 1.15 µM | > 100 µM
COc1cc2c(cc1Oc1c(Oc3c(O)c(OC)cc4c3C(CC(C)C)N(C)CC4)c(OC)cc3c1C(CC(C)C)N(C)CC3)C(CC(C)C)N(C)CC2 (centres undefined) | 3.76 µM | 13.6 µM | 6.3 µM | 5.61 µM | 12.9 µM | 5.52 µM | 11.9 µM | 5.17 µM | 3.28 µM | 8.3 µM | 4.02 µM | 7.39 µM | 5.65 µM | 6.22 µM | 1.69 µM | 17.7 µM | 3.53 µM | 8.15 µM | 0.832 µM | 8.28 µM
COC(=O)c1cn(CC(O)CCl)nn1 (centres undefined) | > 100 µM | > 100 µM | > 100 µM | > 100 µM | > 100 µM | > 100 µM | > 100 µM | > 100 µM | > 100 µM | > 100 µM | – | > 100 µM | > 100 µM | > 100 µM | > 100 µM | > 100 µM | > 100 µM | > 100 µM | > 100 µM | > 100 µM
COc1cc2cc(C(=O)N3CC(CCl)c4ccc(N(C)C)cc43)[nH]c2c(OC)c1OC (centres undefined) | 0.265 µM | 0.121 µM | 0.633 µM | – | > 59.9 µM | 0.289 µM | 0.143 µM | 0.106 µM | 0.0761 µM | 0.604 µM | 0.524 µM | – | > 100 µM | 4.05 µM | 7.01 µM | 0.259 µM | 0.531 µM | 0.729 µM | 0.236 µM | 0.773 µM
COC1=CC(=O)C=C(OC)C1=O | 54.3 µM | 46.5 µM | 4.88 µM | 65.3 µM | 80.9 µM | 13.1 µM | 54.1 µM | 56.2 µM | 20.7 µM | 42.7 µM | 11.6 µM | 51 µM | 18 µM | 64.5 µM | 57.1 µM | 52.2 µM | 35.1 µM | 16.8 µM | 37.5 µM | 13.5 µM
